According to US7465752B2, “Pentenoic acid derivatives, processes for the preparation thereof, pharmaceutical compositions comprising them, and therapeutic applications thereof” (Merck Patent GmbH, priority 2004, dated 2008):

Legend:
[1] = target: chimeric protein PPARα-GaI4 (Homo sapiens, UniProt Q07869); details: 50 μM, 18 hours contact, CV-1 cells
Experimental: (§1) The measurement of the PPAR activation was performed according to a lo technique described by Lehmann et al. (1995, J. Biol. Chem., 270, 12953-12956).
(§2) CV-1 cells (monkey kidney cells) are co-transfected with an expression vector for the chimeric proteins PPARα-GaI4 or PPARγ-GaI4 and with a “reporter” plasmid that allows the expression of the luciferase gene placed under the control of a promoter comprising GaI4 response elements.
(§3) The cells are plated into 96-well microplates and co-transfected using a commercial reagent with the reporter plasmid (pG5-tk-pGL3) and the expression vector for the chimeric protein (PPARα-GaI4 or PPARγ-GaI4). After incubating for 4 hours, whole culture medium (comprising 10% foetal calf serum) is added to the wells. After 24 hours, the medium is removed and replaced with whole medium comprising the test products (50 μM final). The products are left in contact with the cells for 18 hours. The cells are then lysed and the luciferase activity is measured using a luminometer.

[2] = target: chimeric protein PPARγ-GaI4 (Homo sapiens, UniProt P37231); details: 50 μM, 18 hours contact, CV-1 cells
Experimental: as §1, §2, §3

GaI4 alone = details: vector expressing GaI4 alone, in the presence of the product
Experimental: as §2, §3

db/db mice = details: 100 mg/kg/day orally for 15 days
Experimental: The antidiabetic and hypolipidaemiant activity of the compounds was determined orally on db/db mice.
Nine-week-old db/db mice are treated orally for 15 days with the compound of Example 6 (100 mg/kg/day). Each group studied comprises seven animals. After treatment for 15 days, retro-orbital samples are taken under mild anaesthesia and after fasting for four hours.
The following parameters were measured:
Assay of the glycaemia (glucose oxidase) and of the lipid parameters on the sera at D15 (COBAS): triglycerides, total cholesterol (CHOL), HDL cholesterol (HDL-C) and free fatty acids (FFA) (BioMérieux and Waco Chemicals assay kit).
The measurements reported represent mean values±standard error.

[3] = serum at D15, fasted 4 hours, mean ± standard error

Sequence of chimeric protein PPARα-GaI4 (Q07869 239-466 limits assumed, change not shown): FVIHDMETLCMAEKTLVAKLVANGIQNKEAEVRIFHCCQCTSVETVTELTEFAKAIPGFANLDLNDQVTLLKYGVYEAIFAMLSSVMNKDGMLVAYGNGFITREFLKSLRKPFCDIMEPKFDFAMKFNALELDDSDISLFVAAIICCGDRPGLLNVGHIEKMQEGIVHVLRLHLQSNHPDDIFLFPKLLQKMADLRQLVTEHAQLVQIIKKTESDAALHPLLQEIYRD
Sequence of chimeric protein PPARγ-GaI4 (P37231 238-503 limits assumed, change not shown): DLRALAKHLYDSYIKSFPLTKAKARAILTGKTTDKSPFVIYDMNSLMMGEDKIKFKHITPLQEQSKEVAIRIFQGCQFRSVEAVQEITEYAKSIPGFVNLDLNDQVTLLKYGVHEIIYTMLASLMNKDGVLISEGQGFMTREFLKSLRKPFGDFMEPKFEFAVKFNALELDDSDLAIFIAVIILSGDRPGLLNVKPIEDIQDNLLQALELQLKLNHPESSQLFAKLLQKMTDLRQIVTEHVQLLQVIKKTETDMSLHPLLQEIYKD

O=C(O)[C@@H](CC=Cc1ccccc1)Oc1ccc(-c2cc3ccccc3s2)cc1 (racemic) [Example 6, (R,S)-2-{[4-(benzo[b]thiophen-2-yl)phenyl]oxy}-5-phenylpent-4-enoic acid]
PPAR activation factor (reporter gene expression relative to control cells) [1]: 7
PPAR activation factor (reporter gene expression relative to control cells) [2]: 21
luciferase activity in absence of the PPAR α or γ ligand binding domain (GaI4 alone): zero
FFA, % var. (percentage of variation versus control) (db/db mice; D15, not significant): −10% (ns)
CHOL, % var. (percentage of variation versus control) (db/db mice; D15, p < 0.01 versus control): −20% (**)
Glycaemia, % var. (percentage of variation versus control) (db/db mice; D15, p < 0.01 versus control): −50% (**)
HDL-C, % var. (percentage of variation versus control) (db/db mice; D15, p < 0.01 versus control): −25% (**)
Triglycerides, % var. (percentage of variation versus control) (db/db mice; D15, p < 0.05 versus control): −31% (*)
CHOL (total cholesterol) (db/db mice; [3]): 2.98 ± 0.25 mM
FFA (free fatty acids) (db/db mice; [3]): 0.78 ± 0.18 mM
Glycaemia (db/db mice; [3]): 14.93 ± 4.29 Mm
HDL-C (db/db mice; [3]): 2.31 ± 0.20 Mm
Triglycerides (db/db mice; [3]): 1.47 ± 0.59 mM
